# Measurements published in ChEMBL document CHEMBL5030541, “Non-alkylator anti-glioblastoma agents induced cell cycle G2/M arrest and apoptosis: Design, in silico physicochemical and SAR studies of 2-aminoquinoline-3-carboxamides” (Bioorg Med Chem Lett, 2021).
# Activity calls are given as the source filed them. No cut-off for these calls is given here.
# Assays:
# U-87 MG [1] = experiment: Cytotoxicity against human U-87 MG cells assessed as inhibition of cell growth measured after 48 hrs by MTT assay; type: functional, cell-based, U-87MG ATCC
# MKN-45 [2] = experiment: Cytotoxicity against human MKN-45 cells assessed as inhibition of cell growth measured after 48 hrs by MTT assay; type: functional, cell-based; conditions: MKN-45, 48 h
# HCT-116 [3] = experiment: Cytotoxicity against human HCT-116 cells assessed as inhibition of cell growth measured after 48 hrs by MTT assay; type: functional, cell-based; conditions: HCT-116, 48 h
# A549 [4] = experiment: Cytotoxicity against human A549 cells assessed as inhibition of cell growth measured after 48 hrs by MTT assay; type: functional, cell-based; conditions: A549, 48 h
# U-87 MG [5] = experiment: Cytotoxicity against human U-87 MG cells assessed as inhibition of cell growth at 200 uM measured after 48 hrs by MTT assay; type: functional, cell-based; conditions: U-87MG ATCC
# A549 [6] = experiment: Cytotoxicity against human A549 cells assessed as inhibition of cell growth at 200 uM measured after 48 hrs by MTT assay; type: functional, cell-based
# MKN-45 [7] = experiment: Cytotoxicity against human MKN-45 cells assessed as inhibition of cell growth at 200 uM measured after 48 hrs by MTT assay; type: functional, cell-based
# HCT-116 [8] = experiment: Cytotoxicity against human HCT-116 cells assessed as inhibition of cell growth at 200 uM measured after 48 hrs by MTT assay; type: functional, cell-based
# U-87 MG [9] = experiment: Cytotoxicity against human U-87 MG cells assessed as inhibition of cell growth at 100 uM measured after 48 hrs by MTT assay; type: functional, cell-based; conditions: U-87MG ATCC
# U-87 MG [10] = experiment: Effect on cell morphology in human U-87 MG cells assessed as lose of adherence; type: functional, cell-based; conditions: U-87MG ATCC
# U-87 MG [11] = experiment: Effect on cell morphology in human U-87 MG cells assessed as appearance of round cells; type: functional, cell-based; conditions: U-87MG ATCC
# NCM460 = experiment: Cytotoxicity against human NCM460 cells assessed as inhibition of cell growth measured after 48 hrs by MTT assay; type: cell-based; conditions: NCM460, 48 h
# U-87 MG [12] = experiment: Induction of apoptosis in human U-87 MG cells assessed as dead cells at 44 uM measured after 48 hrs by Annexin V-FITC/PI staining based flow cytometry analysis (Rvb= 0.098%); type: functional, U-87MG ATCC
# U-118-MG [13] = experiment: Cytotoxicity against human U-118-MG cells assessed as inhibition of cell growth measured after 48 hrs by MTT assay; type: functional, cell-based
# U-87 MG [14] = experiment: Induction of apoptosis in human U-87 MG cells assessed as early apoptotic cells at 44 uM measured after 48 hrs by annexin V-FITC/PI staining based flow cytometry analysis (Rvb= 6.21%); type: functional, U-87MG ATCC
# U-87 MG [15] = experiment: Induction of apoptosis in human U-87 MG cells assessed as live cells at 44 uM measured after 48 hrs by annexin V-FITC/PI staining based flow cytometry analysis (Rvb= 91.6%); type: functional, U-87MG ATCC
# CCD-841CoN = experiment: Cytotoxicity against human CCD-841CoN cells assessed as inhibition of cell growth measured after 48 hrs by MTT assay; type: cell-based
# U-87 MG [16] = experiment: Induction of cell cycle arrest in human U-87 MG cells assessed as accumulation of cells at G2/M phase at 0.5 times IC50 measured after 48 hrs by PI staining based flow cytometry analysis (Rvb= 5.39%); type: functional, U-87MG ATCC
# A 172 = experiment: Cytotoxicity against human A 172 cells assessed as inhibition of cell growth measured after 48 hrs by MTT assay; type: functional, cell-based; conditions: A 172, 48 h
# U-118-MG [17] = experiment: Effect on cell morphology in human U-118-MG cells assessed as appearance of round cells; type: functional, cell-based
# U-87 MG [18] = experiment: Induction of apoptosis in human U-87 MG cells assessed as late apoptotic cells at 44 uM measured after 48 hrs by annexin V-FITC/PI staining based flow cytometry analysis (Rvb= 2.11%); type: functional, U-87MG ATCC
# U-118-MG [19] = experiment: Effect on cell morphology in human U-118-MG cells assessed as lose of adherence; type: functional, cell-based
# U-251 = experiment: Cytotoxicity against human U-251 cells assessed as inhibition of cell growth measured after 48 hrs by MTT assay; type: functional, cell-based; conditions: U-251, 48 h
# L02 = experiment: Cytotoxicity against human L02 cells assessed as inhibition of cell growth measured after 48 hrs by MTT assay; type: cell-based; conditions: L02, 48 h
Structure (SMILES),IC50 (U-87 MG [1]) [µM],IC50 (MKN-45 [2]) [µM],IC50 (HCT-116 [3]) [µM],IC50 (A549 [4]) [µM],further results
Nc1nc2cc3c(cc2cc1C(=O)NCCc1c[nH]c2ccccc12)OCCO3,44.4,–,–,–,–
COc1cc2nc(N)c(C(=O)NCCc3c[nH]c4ccccc34)cc2c(Cl)c1OC,60.8,75.1,–,–,–
Nc1nc2cc3c(cc2cc1C(=O)NCCc1c[nH]c2ccccc12)OCO3,45.5,76.9,> 200,> 200,–
Nc1nc2cc3c(cc2cc1C(=O)NCC1CC1)OCO3,77.2,> 200,> 200,> 200,–
Nc1nc2cc3c(cc2cc1C(=O)NCCN1C(=O)c2cccc4cccc(c24)C1=O)OCO3,> 200,–,–,73.4,–
Nc1nc2cc3c(cc2cc1C(=O)NCc1cccnc1)OCO3,109,> 200,163,> 200,Activity (U-87 MG [5]): inactive; Activity (A549 [6]): inactive; Activity (MKN-45 [7]): inactive; Activity (HCT-116 [8]): inactive
Nc1nc2cc(Cl)ccc2cc1C(=O)NCc1cccnc1,125,> 200,> 200,> 200,–
Nc1nc2cc3c(cc2cc1C(=O)NCc1ccccc1)OCO3,75.6,> 200,> 200,> 200,–
c1cc2cc3c(cc2nc1C1CC1)OCO3,> 200,–,–,–,Activity (U-87 MG [9]): inactive
C#CCNC(=O)c1cc2cc3c(cc2nc1N)OCO3,> 200,> 200,> 200,92,–
Nc1nc2ncccc2cc1C(=O)NCc1cccnc1,303,> 200,> 200,> 200,–
Cn1nnc2c(C(N)=O)ncn2c1=O [TEMOZOLOMIDE],> 200,–,–,–,–
COc1cc2cc(C(=O)NCCc3c[nH]c4ccccc34)c(N)nc2cc1OC,43.6,72.3,–,–,Activity (U-87 MG [10]): Active; Activity (U-87 MG [11]): Active; IC50 (NCM460): 222 µM; Activity (U-87 MG [12]): 0.45%; IC50 (U-118-MG [13]): 29.2 µM; Activity (U-87 MG [14]): 50.9%; Activity (U-87 MG [15]): 5.65%; IC50 (CCD-841CoN): 135 µM; Activity (U-87 MG [16]): 23.14%; IC50 (A 172): 23.7 µM; Activity (U-87 MG [9]): Active; Activity (U-118-MG [17]): Active; Activity (U-87 MG [18]): 43%; Activity (U-118-MG [19]): Active; IC50 (U-251): 121 µM; IC50 (L02): 118 µM
